Values of other authors as cited in patent US20220047514A1, “SOLID ORAL PHARMACEUTICAL COMPOSITIONS FOR CHRONOTROPIC ADMINISTRATION OF DIPEPTIDYL PEPTIDASE IV INHIBITORS” (priority 2018, published 2022).

What was measured:
DPP-9 = DPP-9 (Homo sapiens, UniProt Q86TI2); details: at therapeutic concentrations
DPP-8 = DPP-8 (Homo sapiens, UniProt Q6V1X1); details: at therapeutic concentrations
Sequence of DPP-8 (Q6V1X1 whole entry): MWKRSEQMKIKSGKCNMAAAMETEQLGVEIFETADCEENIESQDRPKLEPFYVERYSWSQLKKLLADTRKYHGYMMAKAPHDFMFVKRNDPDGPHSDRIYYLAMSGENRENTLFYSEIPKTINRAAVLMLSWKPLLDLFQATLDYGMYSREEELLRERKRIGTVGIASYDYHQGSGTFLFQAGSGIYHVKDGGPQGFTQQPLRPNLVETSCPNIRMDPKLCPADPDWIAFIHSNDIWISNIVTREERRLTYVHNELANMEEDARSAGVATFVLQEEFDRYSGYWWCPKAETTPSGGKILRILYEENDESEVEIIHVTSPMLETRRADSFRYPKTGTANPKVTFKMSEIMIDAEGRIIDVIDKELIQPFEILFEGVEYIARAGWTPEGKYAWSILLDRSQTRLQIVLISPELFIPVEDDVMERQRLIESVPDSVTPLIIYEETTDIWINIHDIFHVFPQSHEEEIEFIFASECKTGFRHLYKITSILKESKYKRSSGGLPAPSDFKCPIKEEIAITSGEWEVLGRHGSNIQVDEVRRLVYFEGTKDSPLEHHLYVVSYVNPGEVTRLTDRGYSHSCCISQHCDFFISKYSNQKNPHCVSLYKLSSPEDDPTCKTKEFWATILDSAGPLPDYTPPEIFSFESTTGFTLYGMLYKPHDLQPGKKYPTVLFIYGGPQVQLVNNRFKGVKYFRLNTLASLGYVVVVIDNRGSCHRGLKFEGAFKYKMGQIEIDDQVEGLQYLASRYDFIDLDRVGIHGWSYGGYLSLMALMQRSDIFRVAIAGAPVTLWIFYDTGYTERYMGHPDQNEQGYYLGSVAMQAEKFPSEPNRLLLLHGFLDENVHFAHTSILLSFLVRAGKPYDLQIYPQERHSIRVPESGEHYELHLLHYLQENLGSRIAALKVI

Sequence of DPP-9 (Q86TI2 whole entry): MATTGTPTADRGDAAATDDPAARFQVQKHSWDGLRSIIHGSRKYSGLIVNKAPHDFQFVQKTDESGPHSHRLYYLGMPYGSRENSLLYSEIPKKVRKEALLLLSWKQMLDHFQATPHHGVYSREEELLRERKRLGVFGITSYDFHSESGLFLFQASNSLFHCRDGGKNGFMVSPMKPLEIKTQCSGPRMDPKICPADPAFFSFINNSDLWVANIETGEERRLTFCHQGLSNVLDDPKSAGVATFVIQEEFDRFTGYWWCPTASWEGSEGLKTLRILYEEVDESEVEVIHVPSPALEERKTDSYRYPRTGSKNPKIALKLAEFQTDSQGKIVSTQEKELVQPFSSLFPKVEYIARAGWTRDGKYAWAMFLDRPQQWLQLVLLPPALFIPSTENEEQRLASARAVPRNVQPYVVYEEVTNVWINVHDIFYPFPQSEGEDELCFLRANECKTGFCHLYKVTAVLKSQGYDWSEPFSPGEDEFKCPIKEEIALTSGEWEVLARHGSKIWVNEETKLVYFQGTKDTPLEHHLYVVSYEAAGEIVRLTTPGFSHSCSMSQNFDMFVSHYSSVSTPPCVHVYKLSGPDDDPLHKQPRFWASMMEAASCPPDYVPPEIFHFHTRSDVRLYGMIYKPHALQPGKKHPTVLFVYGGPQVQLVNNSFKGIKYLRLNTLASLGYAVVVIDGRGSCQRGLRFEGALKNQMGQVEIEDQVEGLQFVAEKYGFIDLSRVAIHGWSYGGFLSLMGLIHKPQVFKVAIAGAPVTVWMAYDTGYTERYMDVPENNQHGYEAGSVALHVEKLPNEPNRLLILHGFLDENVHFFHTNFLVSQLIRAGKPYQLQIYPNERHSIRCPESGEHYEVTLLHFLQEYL

N[C@@H](CC(=O)N1CCn2c(nnc2C(F)(F)F)C1)Cc1cc(F)c(F)cc1F [Sitagliptin, sitagliptin]
inhibition of the activity of DPP-9 (DPP-9): does not inhibit
inhibition of the activity of DPP-8 (DPP-8): does not inhibit
